Reference: US20250249056A1, “CANCER THERAPIES COMPRISING A NUCLEAR EXPORT INHIBITOR AND AN ONCOLYTIC VIRUS” (priority 2022, published 2025)
Read-outs that look alike come from different tables or passages of the source.

Test system: Colo205 cells
Format: cell-based, human
[1] = selinexor-treated nucleus vs MYXV + selinexor-treated nucleus

## O=C(/C=C\n1cnc(-c2cc(C(F)(F)F)cc(C(F)(F)F)c2)n1)NNc1cnccn1 [selinexor]
Q14207, selinexor-treated cytoplasm vs control cytoplasm
  Differential protein expression, NPAT: 0.01
Q14574, selinexor-treated cytoplasm vs control cytoplasm
  Differential protein expression, DSC3: 2.069
Q14686, selinexor-treated cytoplasm vs control cytoplasm
  Differential protein expression, NCOA6: 0.01
Q15047, selinexor-treated cytoplasm vs control cytoplasm
  Differential protein expression, SETDB1: 0.01
Q15050, selinexor-treated cytoplasm vs control cytoplasm
  Differential protein expression, RRS1: 2.155
Q15388, selinexor-treated cytoplasm vs control cytoplasm
  Differential protein expression, TOMM20: 2.862
Q15517, selinexor-treated cytoplasm vs control cytoplasm
  Differential protein expression, CDSN: 3.988
Q15545, selinexor-treated cytoplasm vs control cytoplasm
  Differential protein expression, TAF7: 0.402
Q15572, selinexor-treated cytoplasm vs control cytoplasm
  Differential protein expression, TAF1C: 100
Q15723, selinexor-treated cytoplasm vs control cytoplasm
  Differential protein expression, ELF2: 0.01
Q85295, selinexor-treated cytoplasm vs control cytoplasm
  Differential protein expression, M11L: 4.074
Q92614, selinexor-treated cytoplasm vs control cytoplasm
  Differential protein expression, MYO18A: 2.026
Q92738, selinexor-treated cytoplasm vs control cytoplasm
  Differential protein expression, USP6NL: 100
Q92804, selinexor-treated cytoplasm vs control cytoplasm
  Differential protein expression, TAF15: 2.706
Q92993, selinexor-treated cytoplasm vs control cytoplasm
  Differential protein expression, KAT5: 7.08
Q99594, selinexor-treated cytoplasm vs control cytoplasm
  Differential protein expression, TEAD3: 100
Q99808, selinexor-treated cytoplasm vs control cytoplasm
  Differential protein expression, SLC29A1: 0.406
Protein AAAS (Q9NRG9)
  Differential protein expression, selinexor-treated nucleus vs control nucleus: 0.477
Protein ABHD10 (Q9NUJ1)
  Differential protein expression, selinexor-treated nucleus vs control nucleus: 2.289
Protein ACAD10 (Q6JQN1)
  Differential protein expression, selinexor-treated nucleus vs control nucleus: 2.239
Protein BRIX1 (Q8TDN6)
  Differential protein expression, selinexor-treated nucleus vs control nucleus: 0.475
Protein CALML5 (Q9NZT1)
  Differential protein expression, selinexor-treated nucleus vs control nucleus: 2.328
Protein CASP9 (P55211)
  Differential protein expression, selinexor-treated nucleus vs control nucleus: 100
Protein CDK3 (Q00526)
  Differential protein expression, selinexor-treated nucleus vs control nucleus: 0.472
Protein CHMP2B (Q9UQN3)
  Differential protein expression, selinexor-treated nucleus vs control nucleus: 2.092
Protein CIB1 (Q99828)
  Differential protein expression, selinexor-treated nucleus vs control nucleus: 0.474
Protein CIT (O14578)
  Differential protein expression, selinexor-treated nucleus vs control nucleus: 0.498
Protein COA1 (Q9GZY4)
  Differential protein expression, selinexor-treated nucleus vs control nucleus: 0.481
Protein CSTA (P01040)
  Differential protein expression, selinexor-treated nucleus vs control nucleus: 2.196
Protein ECHDC1 (Q9NTX5)
  Differential protein expression, selinexor-treated nucleus vs control nucleus: 2.716
Protein EFNB1 (P98172)
  Differential protein expression, selinexor-treated nucleus vs control nucleus: 100
Protein ERLIN2 (O94905)
  Differential protein expression, selinexor-treated nucleus vs control nucleus: 0.498
Protein F5 (P12259)
  Differential protein expression, selinexor-treated nucleus vs control nucleus: 100
Protein FBLIM1 (Q8WUP2)
  Differential protein expression, selinexor-treated nucleus vs control nucleus: 0.481
Protein FHIP1B (Q8N612)
  Differential protein expression, selinexor-treated nucleus vs control nucleus: 100
Protein FN3K (Q9H479)
  Differential protein expression, selinexor-treated nucleus vs control nucleus: 2.007
Protein FOS (P01100)
  Differential protein expression, selinexor-treated nucleus vs control nucleus: 2.044
Protein FXR1 (Q9UM11)
  Differential protein expression, selinexor-treated nucleus vs control nucleus: 2.17
Protein GEMIN5 (Q8TEQ6)
  Differential protein expression, selinexor-treated nucleus vs control nucleus: 0.496
Protein GEMIN6 (Q8WXD5)
  Differential protein expression, selinexor-treated nucleus vs control nucleus: 0.473
Protein GNL2 (Q13823)
  Differential protein expression, selinexor-treated nucleus vs control nucleus: 2.38
Protein H2AC1 (Q96QV6)
  Differential protein expression, selinexor-treated nucleus vs control nucleus: 2.215
Protein H2AC4 (P04908)
  Differential protein expression, selinexor-treated nucleus vs control nucleus: 2.544
Protein H2AC6 (Q93077)
  Differential protein expression, selinexor-treated nucleus vs control nucleus: 2.544
Protein H2AC18 (Q6FI13)
  Differential protein expression, selinexor-treated nucleus vs control nucleus: 2.322
Protein H2AC20 (Q16777)
  Differential protein expression, selinexor-treated nucleus vs control nucleus: 2.322
Protein H2AC21 (Q8IUE6)
  Differential protein expression, selinexor-treated nucleus vs control nucleus: 2.215
Protein H2AC25 (Q7L7L0)
  Differential protein expression, selinexor-treated nucleus vs control nucleus: 2.544
Protein H2AX (P16104)
  Differential protein expression, selinexor-treated nucleus vs control nucleus: 2.215
Protein H2BK1 (A0A2R8Y619)
  Differential protein expression, selinexor-treated nucleus vs control nucleus: 2.69
Protein H3-3A (P84243)
  Differential protein expression, selinexor-treated nucleus vs control nucleus: 2.584
Protein HK1 (P19367)
  Differential protein expression, selinexor-treated nucleus vs control nucleus: 0.496
Protein HNRNPA1L2 (Q32P51)
  Differential protein expression, selinexor-treated nucleus vs control nucleus: 2.623
Protein KIF23 (Q02241)
  Differential protein expression, selinexor-treated nucleus vs control nucleus: 0.492
Protein KRT1 (P04264)
  Differential protein expression, selinexor-treated nucleus vs control nucleus: 2.317
Protein KRT7 (P08729)
  Differential protein expression, selinexor-treated nucleus vs control nucleus: 2.576
Protein KRT14 (P02533)
  Differential protein expression, selinexor-treated nucleus vs control nucleus: 2.157
Protein KRT24 (Q2M2I5)
  Differential protein expression, selinexor-treated nucleus vs control nucleus: 2.19
Protein KRT25 (Q7Z3Z0)
  Differential protein expression, selinexor-treated nucleus vs control nucleus: 2.158
Protein KRT27 (Q7Z3Y8)
  Differential protein expression, selinexor-treated nucleus vs control nucleus: 2.158
Protein KRT28 (Q7Z3Y7)
  Differential protein expression, selinexor-treated nucleus vs control nucleus: 2.058
Protein LGALS7 (P47929)
  Differential protein expression, selinexor-treated nucleus vs control nucleus: 2.013
Protein LRRC58 (Q96CX6)
  Differential protein expression, selinexor-treated nucleus vs control nucleus: 2.747
Protein MAFF (Q9ULX9)
  Differential protein expression, selinexor-treated nucleus vs control nucleus: 2.133
Protein MAGED2 (Q9UNF1)
  Differential protein expression, selinexor-treated nucleus vs control nucleus: 2.271
Protein MAN1A1 (P33908)
  Differential protein expression, selinexor-treated nucleus vs control nucleus: 100
Protein MICOS13 (Q5XKP0)
  Differential protein expression, selinexor-treated nucleus vs control nucleus: 0.483
Protein MTX1 (Q13505)
  Differential protein expression, selinexor-treated nucleus vs control nucleus: 0.499
Protein NDE1 (Q9NXR1)
  Differential protein expression, selinexor-treated nucleus vs control nucleus: 0.484
Protein NDEL1 (Q9GZM8)
  Differential protein expression, selinexor-treated nucleus vs control nucleus: 0.481
Protein NDUFA5 (Q16718)
  Differential protein expression, selinexor-treated nucleus vs control nucleus: 0.488
Protein NDUFA11 (Q86Y39)
  Differential protein expression, selinexor-treated nucleus vs control nucleus: 0.492
Protein NDUFS3 (075489)
  Differential protein expression, selinexor-treated nucleus vs control nucleus: 0.478
Protein NDUFS8 (O00217)
  Differential protein expression, selinexor-treated nucleus vs control nucleus: 0.487
Protein NFAT5 (O94916)
  Differential protein expression, selinexor-treated nucleus vs control nucleus: 2.586
Protein NUDT3 (O95989)
  Differential protein expression, selinexor-treated nucleus vs control nucleus: 100
Protein NXN (Q6DKJ4)
  Differential protein expression, selinexor-treated nucleus vs control nucleus: 100
Protein OAS1 (P00973)
  Differential protein expression, selinexor-treated nucleus vs control nucleus: 2.45
Protein OCIAD2 (Q56VL3)
  Differential protein expression, selinexor-treated nucleus vs control nucleus: 0.5
Protein PAN2 (Q504Q3)
  Differential protein expression, selinexor-treated nucleus vs control nucleus: 2.108
Protein PAN3 (Q58A45)
  Differential protein expression, selinexor-treated nucleus vs control nucleus: 2.073
Protein PANK1 (Q8TE04)
  Differential protein expression, selinexor-treated nucleus vs control nucleus: 100
Protein PATL1 (Q86TB9)
  Differential protein expression, selinexor-treated nucleus vs control nucleus: 0.487
Protein PAXX (Q9BUH6)
  Differential protein expression, selinexor-treated nucleus vs control nucleus: 2.321
Protein PHF19 (Q5T6S3)
  Differential protein expression, selinexor-treated nucleus vs control nucleus: 0.477
Protein PNO1 (Q9NRX1)
  Differential protein expression, selinexor-treated nucleus vs control nucleus: 2.639
Protein POLR2B (P30876)
  Differential protein expression, selinexor-treated nucleus vs control nucleus: 0.486
Protein PRDX4 (Q13162)
  Differential protein expression, selinexor-treated nucleus vs control nucleus: 2.477
Protein RBL2 (Q08999)
  Differential protein expression, selinexor-treated nucleus vs control nucleus: 2.063
Protein ROCK1 (Q13464)
  Differential protein expression, selinexor-treated nucleus vs control nucleus: 2.201
Protein RPL10 (P27635)
  Differential protein expression, selinexor-treated nucleus vs control nucleus: 0.483
Protein RPL10L (Q96L21)
  Differential protein expression, selinexor-treated nucleus vs control nucleus: 0.473
Protein RPLP1 (P05386)
  Differential protein expression, selinexor-treated nucleus vs control nucleus: 0.472
Protein RRM1 (P23921)
  Differential protein expression, selinexor-treated nucleus vs control nucleus: 0.488
Protein RTN4 (Q9NQC3)
  Differential protein expression, selinexor-treated nucleus vs control nucleus: 0.491
Protein S100A8 (P05109)
  Differential protein expression, selinexor-treated nucleus vs control nucleus: 2.396
Protein SDAD1 (Q9NVU7)
  Differential protein expression, selinexor-treated nucleus vs control nucleus: 2.021
Protein SDCBP2 (Q9H190)
  Differential protein expression, selinexor-treated nucleus vs control nucleus: 2.735
Protein SFXN2 (Q96NB2)
  Differential protein expression, selinexor-treated nucleus vs control nucleus: 0.478
Protein SFXN5 (Q8TD22)
  Differential protein expression, selinexor-treated nucleus vs control nucleus: 0.48
Protein SLC12A7 (Q9Y666)
  Differential protein expression, selinexor-treated nucleus vs control nucleus: 0.496
Protein SLC25A11 (Q02978)
  Differential protein expression, selinexor-treated nucleus vs control nucleus: 0.496
Protein SLC25A12 (O75746)
  Differential protein expression, selinexor-treated nucleus vs control nucleus: 0.483
Protein SLC25A17 (O43808)
  Differential protein expression, selinexor-treated nucleus vs control nucleus: 0.484
Protein SLC25A35 (Q3KQZ1)
  Differential protein expression, selinexor-treated nucleus vs control nucleus: 0.474
Protein SPG7 (Q9UQ90)
  Differential protein expression, selinexor-treated nucleus vs control nucleus: 0.481
Protein TDRKH (Q9Y2W6)
  Differential protein expression, selinexor-treated nucleus vs control nucleus: 0.492
Protein TEAD2 (Q15562)
  Differential protein expression, selinexor-treated nucleus vs control nucleus: 0.487
Protein TEAD4 (Q15561)
  Differential protein expression, selinexor-treated nucleus vs control nucleus: 0.494
Protein TMA7 (Q9Y2S6)
  Differential protein expression, selinexor-treated nucleus vs control nucleus: 2.251
Protein TOMM20 (Q15388)
  Differential protein expression, selinexor-treated nucleus vs control nucleus: 0.497
Protein TPPP3 (Q9BW30)
  Differential protein expression, selinexor-treated nucleus vs control nucleus: 2.549
Protein UQCR10 (Q9UDW1)
  Differential protein expression, selinexor-treated nucleus vs control nucleus: 0.477
Protein VCPIP1 (Q96JH7)
  Differential protein expression, selinexor-treated nucleus vs control nucleus: 2.057
Protein YBX1 (P67809)
  Differential protein expression, selinexor-treated nucleus vs control nucleus: 0.477
Protein m090L (D2WN26)
  Differential protein expression, selinexor-treated nucleus vs control nucleus: 100
Protein m093L (Q9Q8K7)
  Differential protein expression, selinexor-treated nucleus vs control nucleus: 0.498
[1]
  Differential protein expression B2CWA6 m003.1R: 0.145
  Differential protein expression B2CWA8: 0.122
  Differential protein expression B2CWB0: 0.01
  Differential protein expression B2CWB2: 0.055
  Differential protein expression B2CWB4 m008.1L: 0.045
  Differential protein expression B2CWB5: 0.036
  Differential protein expression B2CWC0: 0.092
  Differential protein expression B2CWC1 m015L: 0.04
  Differential protein expression B2CWC6 m020L: 0.191
  Differential protein expression B2CWC8: 0.058
  Differential protein expression B2CWD4 m027L: 0.045
  Differential protein expression B2CWD6 m029L: 0.023
  Differential protein expression B2CWD8: 0.011
  Differential protein expression B2CWE0 m033R: 0.01
  Differential protein expression B2CWE1: 0.047
  Differential protein expression B2CWE3: 0.064
  Differential protein expression B2CWF3 m046L: 0.111
  Differential protein expression B2CWF4 m047R: 0.039
  Differential protein expression B2CWF6: 0.051
